Several values for one entry are separate records, joined by “and”; a condition that tells them apart may be missing. Equal entries are not always repeated.
Assays:
[1] = target: T1, GPR139 (Homo sapiens, UniProt Q6DWJ6); assay: Inositol monophosphate (IP1) accumulation assay, GPR139-CHOk1; assay type: cell-based; conditions: for EC50 / Emax: Supplementary Table 2; for EC50: mean ± SEM, read-out: pEC50 IP1 (converted); for Emax: normalized to Lundbeck Cmp 1a, read-out: Emax (%) IP1
T1 sequence (Q6DWJ6 1-353): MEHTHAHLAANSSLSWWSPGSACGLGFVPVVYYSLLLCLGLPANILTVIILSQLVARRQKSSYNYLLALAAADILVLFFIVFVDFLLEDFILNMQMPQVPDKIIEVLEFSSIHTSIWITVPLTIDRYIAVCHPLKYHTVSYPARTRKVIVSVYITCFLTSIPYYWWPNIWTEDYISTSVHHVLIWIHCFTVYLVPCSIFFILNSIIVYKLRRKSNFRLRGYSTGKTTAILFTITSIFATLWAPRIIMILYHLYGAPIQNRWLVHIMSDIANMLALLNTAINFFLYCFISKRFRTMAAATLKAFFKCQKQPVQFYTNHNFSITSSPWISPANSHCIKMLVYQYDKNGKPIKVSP
Protocol: Primary screening and pharmacological characterization of compounds were performed using a CHO-K1 cell line that stably expresses human GPR139 (GPR139-CHOk1). The GPR139-CHOk1 cell line was kindly provided by H. Lundbeck A/S, Denmark[24]. GPR139-CHOk1 cells were grown in Ham’s F-12 Kaighn’s Modification Medium (ThermoFisher #21127030) supplemented with 10% dialyzed fetal bovine serum (US origin, ThermoFisher #26400044), 100 units/mL Penicillin-Streptomycin (ThermoFisher #15140122), and 1 mg/mL Geneticin (ThermoFisher #11811031). […] M1R-CHOk1 cells were purchased from The Missouri S&T cDNA Resource Center (#CEM100TN00). M1R-CHOk1 cells were grown in Ham’s F12 Medium (ThermoFisher #21765029) supplemented with 10% fetal bovine serum (Brazilian origin, ThermoFisher #10270106), 100 units/mL Penicillin-Streptomycin, and 0.25 mg/mL Geneticin. HEK293A cells transiently transfected with GPR139 were used for additional pharmacological assessment of signaling pathways activated by GPR139. HEK239A cells were generously provided by Dr. Asuka Inoue, Tohoku University, Japan. HEK293A cells were grown in Dulbecco’s Modified Eagle Medium (ThermoFisher #31966047) supplemented with 10% dialyzed fetal bovine serum and 100 units/mL Penicillin-Streptomycin. Cell lines were maintained at 37 °C in humidified incubator equilibrated with 5% CO2.
HTRF IP-One Gq kit (Cisbio #62IPAPEC) was used to detect the accumulation of inositol monophosphate (IP1) as described in the work by Shehata et al.[26]. GPR139-CHOk1 cells were dissociated and resuspended in HEPES buffer. 50,000 cells in 5 µL and 5 µL test compounds diluted from DMSO stocks (final DMSO concentration of maximally 0.3%) in HEPES buffer supplemented with 40 mM LiCl were mixed in each well of white 384-well OptiPlate (PerkinElmer #6007290). The cells were incubated for 1 h at 37 °C. Then, 10 µL detection reagent composed of 2.5% Eu3 + -anti-IP1 antibody and 2.5% IP1-d2 diluted in lysis buffer was added, and the cells were incubated for 1 h at room temperature before measurements. Measurements were performed on EnVision Multimode Plate Reader (PerkinElmer) using excitation light of 340 nm and emission light of 615 nm and 665 nm. The time resolved-fluorescence resonance energy transfer (TR-FRET) 665 nm/615 nm ratio, which is inversely proportional to the IP1 accumulation, was used to determine the IP1 response.
Pharmacological data and statistical analyses were performed in GraphPad Prism v9–10 (Graphpad Software Inc., San Diego, CA), which are also specifically described in the figure and table legends. The functional assay responses were normalized to buffer (0%) and Lundbeck Cmp 1a or JNJ-63533054 (100%), for Ca^2+ and IP1 experiments in the GPR139-CHOk1 stable cell line or Ca^2+, G protein activation, and arrestin-3 recruitment experiments in the HEK293A cells transiently transfected with GPR139, respectively. Data are from at least three independent experiments, unless stated otherwise. Concentration-response curves were fitted applying non-linear regression using the log (agonist) versus response model with variable slope. ANOVA was applied for comparing results and determining statistical significance. Comparison of responses to the reference was performed using one-way ANOVA with Dunnett’s multiple comparisons test at significance threshold of p < 0.05. Comparison of responses across assays and ligands was performed using two-way ANOVA with Tukey’s multiple comparisons test at a significance threshold of p < 0.05.

[2] = target: T1, GPR139; assay: Ca2+ mobilization assay, antagonist mode (EC80 800 nM Lundbeck Cmp 1a after 20 min preincubation), GPR139-CHOk1; assay type: cell-based
How it was run: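 Antagonist mode: 800 nM (EC80) reference agonist Lundbeck Cmp 1a added following 20 min pre-incubation with 10 µM compound. GPR139-CHOk1 cells, Fluo-4 dye, probenecid-containing HEPES buffer pH 7.4; intracellular Ca2+ measured at 37 °C (ex 485, em 525 nm).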

Question: Which EC50 [1] does the source give for `COc1ccccc1-c1nc(CC(=O)NC(C)c2ccccc2)no1` (stereo not shown) [Compound 1.2, COC1=C(C2=NC(CC(NC(C3=CC=CC=C3)C)=O)=NO2)C=CC=C1] here?
Answer: Its EC50 is 501 nM.

Question: And the Emax [1]?
Answer: Its Emax is 100 ± 9%.

Question: And the “IP1 response (% of Cmp 1a)” value ([1]; log [compound] M -4.5, individual replicates)?
Answer: The value was 124 % of Cmp 1a and 88 % of Cmp 1a and 75 % of Cmp 1a and 93 % of Cmp 1a.

Question: What about the “IP1 response (% of Cmp 1a)” value ([1]; log [compound] M -5.0, individual replicates) of the same compound?
Answer: Its value is 116 % of Cmp 1a and 87 % of Cmp 1a and 73 % of Cmp 1a and 117 % of Cmp 1a.

Question: And the “IP1 response (% of Cmp 1a)” value ([1]; log [compound] M -5.5, individual replicates)?
Answer: The value was 100 % of Cmp 1a and 64 % of Cmp 1a and 57 % of Cmp 1a and 96 % of Cmp 1a.

Question: And the “IP1 response (% of Cmp 1a)” value ([1]; log [compound] M -6.0, individual replicates)?
Answer: The value was 93 % of Cmp 1a and 47 % of Cmp 1a (2×) and 64 % of Cmp 1a.

Question: And the “IP1 response (% of Cmp 1a)” value ([1]; log [compound] M -6.5, individual replicates)?
Answer: The value was 57 % of Cmp 1a and 45 % of Cmp 1a and 31 % of Cmp 1a and 51 % of Cmp 1a.

Question: And the “IP1 response (% of Cmp 1a)” value ([1]; log [compound] M -7.0, individual replicates)?
Answer: The value was 15 % of Cmp 1a and 18 % of Cmp 1a and 6 % of Cmp 1a and 14 % of Cmp 1a.

Question: What about the “IP1 response (% of Cmp 1a)” value ([1]; log [compound] M -7.5, individual replicates) of the same compound?
Answer: The value was 15 % of Cmp 1a and 11 % of Cmp 1a and -2 % of Cmp 1a and 7.38 % of Cmp 1a.

Question: What about the “IP1 response (% of Cmp 1a)” value ([1]; log [compound] M -8.0, individual replicates) of the same compound?
Answer: The value was 2 % of Cmp 1a and -5.58 % of Cmp 1a and -11 % of Cmp 1a and 6.5 % of Cmp 1a.

Question: And the “Ca2+ signal (% of Cmp 1a)” value ([2]; individual replicates (Supplementary Figure 4))?
Answer: The value was 2 % of Cmp 1a and 4 % of Cmp 1a and 3.33 % of Cmp 1a.

Question: Which results are given for `Cc1cc(-c2nc(CC(=O)NC(C)c3ccccc3)no2)sc1C` (stereo not shown) [Compound 1, CC(NC(=O)CC1=NOC(=N1)C2=CC(C)=C(C)S2)C=3C=CC=CC3]?
Answer: EC50 [1]: 794 nM; Emax [1]: 114 ± 5%; IP1 response (% of Cmp 1a) ([1]; log [Compound] M -4.5, replicate experiments): 99 % of Cmp 1a and 115 % of Cmp 1a and 112 % of Cmp 1a and 118 % of Cmp 1a; IP1 response (% of Cmp 1a) ([1]; log [Compound] M -5.0, replicate experiments): 92 % of Cmp 1a and 116 % of Cmp 1a and 103 % of Cmp 1a and 95 % of Cmp 1a; IP1 response (% of Cmp 1a) ([1]; log [Compound] M -5.5, replicate experiments): 125 % of Cmp 1a and 86 % of Cmp 1a and 77 % of Cmp 1a and 96 % of Cmp 1a; IP1 response (% of Cmp 1a) ([1]; log [Compound] M -6.0, replicate experiments): 63 % of Cmp 1a and 74 % of Cmp 1a and 39 % of Cmp 1a and 72 % of Cmp 1a; IP1 response (% of Cmp 1a) ([1]; log [Compound] M -6.5, replicate experiments): 35 % of Cmp 1a and 29 % of Cmp 1a and 17 % of Cmp 1a and 40 % of Cmp 1a; IP1 response (% of Cmp 1a) ([1]; log [Compound] M -7.0, replicate experiments): 21 % of Cmp 1a and 14 % of Cmp 1a and 6 % of Cmp 1a and 18 % of Cmp 1a; IP1 response (% of Cmp 1a) ([1]; log [Compound] M -7.5, replicate experiments): -5 % of Cmp 1a and 4 % of Cmp 1a and 0.66 % of Cmp 1a and 5.34 % of Cmp 1a; IP1 response (% of Cmp 1a) ([1]; log [Compound] M -8.0, replicate experiments): 1.43 % of Cmp 1a and -2.78 % of Cmp 1a and 0.322 % of Cmp 1a and 4 % of Cmp 1a; Ca2+ signal (% of Cmp 1a) ([2]; individual replicates (Supplementary Figure 1)): 6.536 % of Cmp 1a and 8.894 % of Cmp 1a and 14.743 % of Cmp 1a

— PMC12775434, “Ultra-large virtual screening unveils potent agonists of the neuromodulatory orphan receptor GPR139” (Nature Communications, 2025)
